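Five compound concentrations were applied to cells in 96-well plates for 48 hours; endpoints were derived by simple linear interpolation of the resulting dose-response curve. GI50: concentration for 50% inhibition of growth.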 Calls of active or inactive are those of the source. Cut-off read from the data, not from the text of the source: active = GI50 up to about 1.1 µM and inactive = higher. Numbered stars: 1 amine (or outer) side, 2 acyl side, 3 side chain; on linkers, the order of the positions; unused ones are H or OH. Bridge positions count the residues as written; N and C are the ends. Square brackets hold non-standard residues; d marks the D form. Peptide text beside a SMILES is read from it. I, II: the chains in the order shown. Actinocin(9to1) = Cc1c2oc3c(C)ccc(C(=O)[*:1])c3nc-2c(C(=O)[*:2])c(N)c1=O; NMeH = CN[CH](Cc1c[nH]cn1)C(=O)O; Sar = CNCC(=O)O Some results are limits rather than exact numbers.

Holding throughout (assay): NCI tumour cell line growth inhibition, 48 h
Experiment [1] deals with 786-0.
In experiment [2] the test system is SK-MEL-5.
Experiment [3] has as its system OVCAR-5.
In experiment [4] the test system is MCF7.
Experiment [5] deals with HT-29.
Experiment [6] relates to SK-OV-3.
In experiment [7] the test system is Malme-3M.
The subject of experiment [8] is KM12.
For experiment [9], the system named is HCT-116.
The test system of experiment [10] is CCRF-CEM.
In experiment [11] the test system is SF-539.
Experiment [12] relates to SF-268.
Experiment [13] relates to T47D.
The subject of experiment [14] is MDA-N.
Experiment [15] concerns LOX IMVI.
Experiment [16] has as its system U-251.
Experiment [17] has as its system MDA-MB-435.
Experiment [18] concerns MDA-MB-231.
Experiment [19] concerns NCI-H226.
In experiment [20] the test system is K562.

For the compound `Cc1ccc(C(CCO)CCO)nc1`, the GI50 in experiment [1], in experiment [2], in [3], in experiment [4], in [5] and in experiment [6] was > 100 µM (inactive) each time. Moreover, the GI50 in experiment [7], in experiment [8], in experiment [9], in experiment [10], in experiment [11] and in [12] was > 100 µM (inactive) in each case. For the same compound, the GI50 in [13], in [14], in experiment [15], in experiment [16], in experiment [17] and in [18] was > 100 µM (inactive) in each case. Besides, the GI50 in experiment [19] is > 100 µM (inactive).

As to `C#CCOC(=O)C=[N+]=[N-]`, the GI50 in experiment [1], in [3], in [4], in [5], in experiment [6] and in experiment [7] was > 10 µM (inactive) throughout. Moreover, the GI50 in [8], in [9], in experiment [10], in experiment [11], in experiment [12] and in experiment [13] was > 10 µM (inactive) throughout. Moreover, the GI50 in experiment [14], in experiment [15], in [16], in [17], in [18] and in [19] was > 10 µM (inactive) throughout. The GI50 in [20] was > 10 µM (inactive).

Consider `O=C1CC2(CCNCC2)C(=O)N1N1CCCC1`, for which the GI50 in experiment [1], in [2], in experiment [3], in [4], in experiment [5] and in experiment [6] was > 100 µM (inactive) in each case. Besides, the GI50 in [7], in experiment [8], in [9], in [10], in experiment [11] and in experiment [13] was > 100 µM (inactive) each time. In addition, the GI50 in [14], in [15], in experiment [16], in experiment [17], in [18] and in experiment [19] was > 100 µM (inactive) throughout. Further, in experiment [20], the GI50 was > 100 µM (inactive).

Consider `c1coc(C2=Nc3cccc4cccc(c34)N2)c1`, for which the GI50 in experiment [1] is 53.3 µM (inactive); in experiment [2], 34.9 µM (inactive); in [4], 24.1 µM (inactive); in experiment [5], 23.2 µM (inactive); in experiment [6], 98.4 µM (inactive); in experiment [7] it was 93.8 µM (inactive). Moreover, the GI50 in experiment [8] was 19.6 µM (inactive); in [9], 23.1 µM (inactive); in [10], 32.1 µM (inactive); in experiment [11], 15 µM (inactive); in [12] it was 68.2 µM (inactive); in experiment [13], 8.49 µM (inactive). The GI50 in experiment [14] is 41.1 µM (inactive); in [15], 41.9 µM (inactive); in experiment [16] it was 69 µM (inactive); in experiment [17] it was 50.8 µM (inactive); in experiment [18], 34.6 µM (inactive); in experiment [19] it was > 100 µM (inactive). Also, the GI50 in experiment [20] was 38.7 µM (inactive).

Regarding `COc1cc2c(cc1OC)C13CC[N+]4(C)CC5=CCOC6CC(=O)N2C1C6C5CC34[O-]` (centres undefined), the GI50 in [1], in experiment [2], in experiment [4], in [6], in experiment [7] and in experiment [8] was > 100 µM (inactive) each time. For the same compound, the GI50 in [9], in [10], in [11], in [12], in experiment [13] and in experiment [14] was > 100 µM (inactive) each time. Besides, the GI50 in experiment [15], in experiment [16], in experiment [17], in [18], in experiment [19] and in experiment [20] was > 100 µM (inactive) in each case.

Take `Cc1c2oc3c(C)ccc(C(=O)NC4C(=O)NC(C(C)C)C(=O)N5CCCC5C(=O)N(C)CC(=O)N(C)C(Cc5cnc[nH]5)C(=O)OC4C)c3nc-2c(C(=O)NC2C(=O)NC(C(C)C)C(=O)N3CCCC3C(=O)N(C)CC(=O)N(C)C(Cc3cnc[nH]3)C(=O)OC2C)c(N)c1=O` (centres undefined) (I: TVP[Sar][NMeH] / II: TVP[Sar][NMeH]; ester I:1-I:C, II:1-II:C; linker I:N-II:N via Actinocin(9to1); configuration not given here): the GI50 in [1] was 45.6 µM (inactive); in experiment [2] it was 16.9 µM (inactive); in [3] it was > 100 µM (inactive); in [4], 30.4 µM (inactive); in [5] it was 31.8 µM (inactive); in [6], 69.3 µM (inactive). Also, the GI50 in experiment [7] is 55.7 µM (inactive); in [8] it was 62.1 µM (inactive); in experiment [10], 59 µM (inactive); in experiment [11], 28.8 µM (inactive); in [12] it was 67.6 µM (inactive); in experiment [13] it was 47.5 µM (inactive). Moreover, the GI50 in [14] was 25.2 µM (inactive); in experiment [15] it was 20.2 µM (inactive); in [16], 57.1 µM (inactive); in experiment [17], 63.4 µM (inactive); in experiment [18], > 100 µM (inactive); in experiment [19], 56.2 µM (inactive). Moreover, the GI50 in [20] is 39.4 µM (inactive).

On to `CC1=CC(=O)/C(=C/NC(=S)Nc2ccccc2)C(=O)O1`, for which the GI50 in [1], in experiment [2], in [3], in experiment [4], in [5] and in experiment [6] was > 100 µM (inactive) in each case. For the same compound, the GI50 in experiment [8], in experiment [9], in experiment [10], in experiment [11], in experiment [12] and in experiment [13] was > 100 µM (inactive) throughout. For the same compound, the GI50 in experiment [14], in [15], in experiment [16], in [17], in [18] and in experiment [19] was > 100 µM (inactive) in each case. In [20], the GI50 is > 100 µM (inactive).

Regarding `Cc1ccc(S(=O)(=O)N/N=C2\CC(C)OC3=C2CCCCCC3)cc1` (centres undefined), the GI50 in [1] was 17.1 µM (inactive); in experiment [2] it was 16.9 µM (inactive); in experiment [3] it was 19.5 µM (inactive); in experiment [4], 19 µM (inactive); in experiment [5], 17.5 µM (inactive); in [6], 26.1 µM (inactive). Besides, the GI50 was 21.7 µM (inactive) in [7]; 19.7 µM (inactive) in experiment [8]; 16.5 µM (inactive) in experiment [9]; 24.7 µM (inactive) in experiment [10]; 20.5 µM (inactive) in experiment [11]; 19.9 µM (inactive) in experiment [12]. Also, the GI50 in experiment [13] is 76.6 µM (inactive); in [14], > 100 µM (inactive); in experiment [15], 18.7 µM (inactive); in experiment [17], 18.5 µM (inactive); in experiment [18] it was 19.1 µM (inactive); in [19], 21.6 µM (inactive). Also, in experiment [20], the GI50 was 21.5 µM (inactive).

Regarding `Cc1ccc(S(=O)(=O)NC(=O)C2C(=O)CC3(CCCCC3)CC2=O)cc1`, the GI50 was 25.9 µM (inactive) in experiment [1]; 25.4 µM (inactive) in experiment [2]; 24.4 µM (inactive) in [3]; 22.8 µM (inactive) in [4]; 32.7 µM (inactive) in experiment [5]; 28.2 µM (inactive) in experiment [6]. Further, the GI50 in [8] is 19.6 µM (inactive); in experiment [9] it was 25.9 µM (inactive); in [10], 27.3 µM (inactive); in experiment [11] it was 30.7 µM (inactive); in experiment [12] it was 34.8 µM (inactive); in experiment [13], 20 µM (inactive). Moreover, the GI50 in [14] was 29.3 µM (inactive); in experiment [15], 55.2 µM (inactive); in experiment [16] it was 38.4 µM (inactive); in [17], 32.1 µM (inactive); in [18] it was 36.1 µM (inactive); in experiment [19] it was 34.8 µM (inactive). The GI50 in [20] is 38.1 µM (inactive).

Regarding `CCCC(=O)Nc1cc(/C=C/C(=O)N2CC(CCl)c3ccc([N+](=O)[O-])cc32)n(C)c1` (centres undefined), the GI50 in experiment [1] was 62.4 µM (inactive); in experiment [3], > 100 µM (inactive); in [4] it was 68.7 µM (inactive); in [5], 21.1 µM (inactive); in [6], > 100 µM (inactive); in experiment [7], > 100 µM (inactive). Besides, the GI50 in [8] is 19.5 µM (inactive); in experiment [9], 56 µM (inactive); in experiment [10], 0.568 µM (active); in [11], 43.4 µM (inactive); in experiment [12], 43.7 µM (inactive); in experiment [13], 70 µM (inactive). Moreover, the GI50 was > 100 µM (inactive) in [14]; 73.5 µM (inactive) in [15]; > 100 µM (inactive) in experiment [16]; > 100 µM (inactive) in experiment [17]; 21.6 µM (inactive) in experiment [18]; 21.8 µM (inactive) in experiment [19]. Also, the GI50 in experiment [20] is > 100 µM (inactive).
